± gives the expanded uncertainty stated by the source.
Settings: 101.33 kPa, Liquid, Vibrating tube method

Structure (SMILES)	mass density (298.15 K) [kg/m3]	also measured
CCCC[N+]1(C)CCCC1.O=S(=O)([O-])C(F)(F)F [1-butyl-1-methylpyrrolidinium trifluoromethanesulfonate]	1252.75 ± 1.1	–
CCCO [propan-1-ol]	799.52 ± 1	–
c1ccsc1 [thiophene]	1058.92 ± 1	–
CCCCCCC [heptane]	679.54 ± 1	–
CCCCCCn1cc[n+](C)c1.N#C[B-](C#N)(C#N)C#N [1-hexyl-3-methylimidazolium tetracyanoborate]	–	mass density (308.15 K): 983.03 ± 1 kg/m3
c1ccc2sccc2c1 [benzo[b]thiophene]	–	mass density (308.15 K): 1150.81 ± 1 kg/m3; mass density (318.15 K): 1141.83 ± 1 kg/m3; mass density (328.15 K): 1132.85 ± 1 kg/m3
CCCC[N+]1(C)CCCC1.N#CC(=C=[N-])C#N [1-butyl-1-methylpyrrolidinium tricyanomethanide]	1006.91 ± 1.3	–
CC(C)=O [acetone]	785.32 ± 1	–

From the NIST ThermoML archive (doi:10.1016/j.jct.2014.04.025)
